Measurements: article PMC9786103, “Potent and Selective Inhibition of CYP1A2 Enzyme by Obtusifolin and Its Chemopreventive Effects” (Pharmaceutics, 2022)

Columns and labels:
[1] = target: T1, CYP1A2 (Homo sapiens, UniProt P05177); assay: CYP1A2-mediated phenacetin O-deethylase (POD) activity in pooled human liver microsomes
T1 sequence (P05177 1-516): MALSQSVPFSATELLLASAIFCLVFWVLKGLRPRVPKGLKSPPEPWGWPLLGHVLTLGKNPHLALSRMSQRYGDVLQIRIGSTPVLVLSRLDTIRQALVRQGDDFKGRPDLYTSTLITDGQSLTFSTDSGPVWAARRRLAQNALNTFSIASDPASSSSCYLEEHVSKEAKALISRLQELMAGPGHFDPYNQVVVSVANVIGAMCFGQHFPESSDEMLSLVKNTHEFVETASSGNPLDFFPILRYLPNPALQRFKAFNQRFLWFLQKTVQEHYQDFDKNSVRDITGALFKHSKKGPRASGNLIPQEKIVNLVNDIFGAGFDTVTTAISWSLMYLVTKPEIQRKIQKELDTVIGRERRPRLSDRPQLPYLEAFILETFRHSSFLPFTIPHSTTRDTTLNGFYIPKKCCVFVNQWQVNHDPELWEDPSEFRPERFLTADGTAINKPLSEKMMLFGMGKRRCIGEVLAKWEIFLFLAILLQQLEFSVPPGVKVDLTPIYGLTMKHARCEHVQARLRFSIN
Experimental: (§1) The inhibitory potential of five major bioactive compounds from Cassiae semen against CYP1A2-mediated phenacetin O-deethylase (POD) activity was evaluated using previously developed methods with minor modifications. Briefly, the compounds were dissolved in methanol. The incubation mixtures containing pHLMs (0.25 mg/mL), phenacetin (100 µM), and inhibitor (0, 0.5, 2, 5, 20, or 50 µM) were pre-incubated at 37 °C for 5 min. An NADPH-generating system (NGS, 1.3 mM β-NADP^+, 3.3 mM G6P, 1.0 U/mL G6PDH, and 3.3 mM magnesium chloride) was introduced after pre-incubation to initiate the reaction, and further incubated for 15 min. The reaction was quenched by the addition of 50 µL ice-cold acetonitrile containing internal standard (IS; 7nM trimipramine). Aliquots of supernatants were analyzed by liquid chromatography–tandem mass spectrometry (LC-MS/MS, LCMS 8060 system, Shimadzu, Kyoto, Japan). All microsomal incubations were repeated three times.
(§2) The inhibitory potential of obtusifolin against the biotransformation of eight P450 probe substrates was examined using previously reported methods with slight changes. The following P450 isoform-specific substrates were used: coumarin (CYP2A6); bupropion (CYP2B6); amodiaquine (CYP2C8); tolbutamide (CYP2C9); omeprazole (CYP2C19); dextromethorphan (CYP2D6); chlorzoxazone (CYP2E1); and midazolam (CYP3A). Mixtures of pooled HLM, P450 substrates, and obtusifolin (0, 0.05, 0.2, 0.5, 2, 5, or 10 µM for CYP1A2; and 0, 0.5, 2, 5, 20, or 50 µM for the other P450 isoforms) were pre-incubated (5 min, 37 °C). NGS was introduced to start the reaction, which was followed by an additional incubation (15 min). Following reaction termination, aliquots of the supernatants were analyzed with LC-MS/MS.
(§3) Reverse phase column (Kinetex XB-C18, 100 × 2.10 mm; Phenomenex, Torrance, CA, USA) and triple-quadrupole mass spectrometer (LCMS 8060, Shimadzu, Kyoto, Japan) with an ultra high-performance LC system (Nexera X2, Shimadzu) analyze all the metabolites. Mobile phases were 0.1% formic acid in water (A) and 0.1% formic acid in acetonitrile (B). The elution condition was as follows: 0–0.5 min (B: 8%), 0.5–5 min (B: 8%→60%), 5–6 min (B: 60%), 6–6.1 min (B: 60%→8%), and 6.1–10 min (B: 8%) for the analysis of metabolites of the nine P450 substrates; and 0–1 min (B: 5%), 1–5 min (B: 5%→90%), and 5.1–7 min (B: 90%→5%) for the analysis of resorufin. Electrospray ionization was performed in the positive- and negative-ion modes at 4.0 and −3.5 kV, respectively. For each metabolite, quantitation was carried out in selected reaction monitoring (SRM) mode using the following precursor-to-product ion transition: m/z 152 > 110 for acetaminophen (CYP1A2), m/z 214 > 186 for resorufin (CYP1A1 and CYP1A2), m/z 163 > 107 for 7-hydroxycoumarin (CYP2A6), m/z 256 > 238 for 6-hydroxybupropion (CYP2B6), m/z 328 > 283 for N-desethylamodiaquine (CYP2C8), m/z 287 > 89 for 5-hydroxytolbutamide (CYP2C9), m/z 362 > 214 for 4-hydroxyomeprazole ([…]), m/z 258 > 157 for dextrorphan (CYP2D6), m/z 184 > 120 for 6-hydroxychlorzoxazone (CYP2E1), m/z 342 > 203 for 1′-hydroxymidazolam (CYP3A), and m/z 295 > 100 for trimipramine (IS).
(§4) WinNonlin software (Pharsight, Mountain View, CA, USA) was used to calculate IC50 values. Based on Lineweaver–Burk double reciprocal plots, secondary plots of Lineweaver–Burk plots versus obtusifolin concentrations, and visual inspection of Dixon plots, the type of inhibition and apparent kinetic parameters for inhibitory activity (Ki) were estimated.

[2] = target: T2, CYP1A2 versus CYP2A6, CYP2B6, CYP2C8, CYP2C9, CYP2C19, CYP2D6, CYP2E1, CYP3A (Homo sapiens, UniProt P05177); assay: as above; conditions: human, pooled human liver microsomes
T2 sequence (P05177 1-516): T1 sequence (P05177 1-516)
Experimental: as §1, §2, §3, §4

[3] = target: T3, rCYP1A1 (Homo sapiens, UniProt P04798); assay: Recombinant CYP1A1 inhibition with 9-cis-retinal as substrate; assay type: biochemical; conditions: substrate 9-cis-retinal
T3 construct: purchased SPMED (Busan, Republic of Korea)
T3 sequence (P04798 1-512): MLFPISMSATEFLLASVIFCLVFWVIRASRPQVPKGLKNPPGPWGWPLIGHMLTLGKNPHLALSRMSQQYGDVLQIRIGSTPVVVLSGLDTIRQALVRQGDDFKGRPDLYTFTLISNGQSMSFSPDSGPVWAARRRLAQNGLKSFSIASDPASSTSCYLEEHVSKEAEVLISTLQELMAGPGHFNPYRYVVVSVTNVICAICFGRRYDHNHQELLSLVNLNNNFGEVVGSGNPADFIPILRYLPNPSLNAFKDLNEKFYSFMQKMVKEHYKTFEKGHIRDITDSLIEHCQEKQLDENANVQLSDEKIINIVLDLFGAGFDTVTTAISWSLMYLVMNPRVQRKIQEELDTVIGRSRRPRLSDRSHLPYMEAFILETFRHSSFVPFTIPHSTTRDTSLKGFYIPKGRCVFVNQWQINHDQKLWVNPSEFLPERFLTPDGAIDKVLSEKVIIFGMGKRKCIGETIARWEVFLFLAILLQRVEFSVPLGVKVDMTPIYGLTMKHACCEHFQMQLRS
Text: Table 5 Inhibitory effects (IC50) of obtusifolin against recombinant CYP1A1 and CYP1A2. | column: IC50 (μM)

- IC50 [1]: 190 ± 10 nM
- inhibition at 15 min, 0.5 µM ([1]; human, pooled human liver microsomes, probe phenacetin (100 µM)): 73.3%
- IC50 [3]: > 10000 nM
Structure (SMILES): COc1c(O)c(C)cc2c1C(=O)c1c(O)cccc1C2=O [Obtusifolin, obtusifolin]
- selectivity ratio at 15 min [2]: > 150
